Experimental data taken from the kinase profiling compilation of Christmann-Franck et al. (2016).

Key:
Assay in all cases: radiometric filter-binding kinase assay, Kinase HotSpot
Details in all cases: compound 0.5 µM; ATP 10 µM
CLK1 (human) = CLK1 (human) (UniProt P49759)
CAMK2B (human) = CAMK2B (human) (UniProt Q13554)
AKT1 (human) = AKT1 (human) (UniProt P31749)
PHKG1 (human) = PHKG1 (human) (UniProt Q16816)
ITK (human) = ITK (human) (UniProt Q08881)
PAK7 (human) = PAK7 (human) (UniProt Q9P286)
MINK1 (human) = MINK1 (human) (UniProt Q8N4C8)
FGFR1 (human) = FGFR1 (human) (UniProt P11362)
MAPK8 (human) = MAPK8 (human) (UniProt P45983)
NEK2 (human) = NEK2 (human) (UniProt P51955)
MAP4K5 (human) = MAP4K5 (human) (UniProt Q9Y4K4)
[1] = molecular target: TYK2 JH1 catalytic (human) (UniProt P29597)
BRSK1 (human) = BRSK1 (human) (UniProt Q8TDC3)
STK25 (human) = STK25 (human) (UniProt O00506)
FYN (human) = FYN (human) (UniProt P06241)
STK10 (human) = STK10 (human) (UniProt O94804)
[2] = system: MAP2K6 (human), P52564 [S207E/T211E]
DSTYK (human) = DSTYK (human) (UniProt Q6XUX3)
RPS6KA6 KD1 KD2 (human) = RPS6KA6 KD1 KD2 (human) (UniProt Q9UK32)
STK11 (human) = STK11 (human) (UniProt Q15831)
DYRK4 (human) = DYRK4 (human) (UniProt Q9NR20)
FRK (human) = FRK (human) (UniProt P42685)
MAPK3 (human) = MAPK3 (human) (UniProt P27361)
MERTK (human) = MERTK (human) (UniProt Q12866)
WNK2 (human) = WNK2 (human) (UniProt Q9Y3S1)
ZAP70 (human) = ZAP70 (human) (UniProt P43403)
PTK2B (human) = PTK2B (human) (UniProt Q14289)
NUAK1 (human) = NUAK1 (human) (UniProt O60285)
FGFR3 (human) = FGFR3 (human) (UniProt P22607)
PAK4 (human) = PAK4 (human) (UniProt O96013)
DYRK2 (human) = DYRK2 (human) (UniProt Q92630)
ACVRL1 (human) = ACVRL1 (human) (UniProt P37023)
MAP3K5 (human) = MAP3K5 (human) (UniProt Q99683)
ABL2 (human) = ABL2 (human) (UniProt P42684)
NEK11 (human) = NEK11 (human) (UniProt Q8NG66)
CAMK2A (human) = CAMK2A (human) (UniProt Q9UQM7)
[3] = system: FLT4 (human), P35916 [Q890H]
MAPK14 (human) = MAPK14 (human) (UniProt Q16539)
STK24 (human) = STK24 (human) (UniProt Q9Y6E0)
CDK2 CCNA2 (human) = CDK2 CCNA2 (human) (UniProt P24941+P20248)
ROCK2 (human) = ROCK2 (human) (UniProt O75116)
GRK7 (human) = GRK7 (human) (UniProt Q8WTQ7)

CLK1 (human), sequence (P49759 whole entry, looked up): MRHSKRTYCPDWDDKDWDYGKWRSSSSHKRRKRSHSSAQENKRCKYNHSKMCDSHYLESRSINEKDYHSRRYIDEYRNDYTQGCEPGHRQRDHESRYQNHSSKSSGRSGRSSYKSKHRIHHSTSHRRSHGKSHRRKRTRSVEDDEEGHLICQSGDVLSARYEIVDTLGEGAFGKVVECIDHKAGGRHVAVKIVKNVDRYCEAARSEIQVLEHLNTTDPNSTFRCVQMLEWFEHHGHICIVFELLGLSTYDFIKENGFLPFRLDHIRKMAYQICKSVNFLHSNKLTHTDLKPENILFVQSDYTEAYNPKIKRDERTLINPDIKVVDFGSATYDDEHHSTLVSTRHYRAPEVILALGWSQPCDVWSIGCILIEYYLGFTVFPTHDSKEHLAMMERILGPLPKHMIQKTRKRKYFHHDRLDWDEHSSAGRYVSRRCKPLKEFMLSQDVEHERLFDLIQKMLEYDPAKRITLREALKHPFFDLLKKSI
AKT1 (human), sequence (P31749 whole entry, looked up): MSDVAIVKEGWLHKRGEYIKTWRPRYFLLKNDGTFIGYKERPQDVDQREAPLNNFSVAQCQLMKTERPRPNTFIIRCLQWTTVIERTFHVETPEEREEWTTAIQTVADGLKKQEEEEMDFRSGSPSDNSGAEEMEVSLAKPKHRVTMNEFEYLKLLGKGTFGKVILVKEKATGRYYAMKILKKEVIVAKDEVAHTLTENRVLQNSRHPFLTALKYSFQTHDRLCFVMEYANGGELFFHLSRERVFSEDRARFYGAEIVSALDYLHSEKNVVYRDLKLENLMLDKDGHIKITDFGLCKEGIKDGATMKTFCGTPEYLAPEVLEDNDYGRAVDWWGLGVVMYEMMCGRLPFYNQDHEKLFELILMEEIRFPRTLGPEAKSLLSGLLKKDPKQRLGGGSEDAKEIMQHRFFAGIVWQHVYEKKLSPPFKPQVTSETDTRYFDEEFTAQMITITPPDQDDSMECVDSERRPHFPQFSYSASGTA
FRK (human), sequence (P42685 whole entry, looked up): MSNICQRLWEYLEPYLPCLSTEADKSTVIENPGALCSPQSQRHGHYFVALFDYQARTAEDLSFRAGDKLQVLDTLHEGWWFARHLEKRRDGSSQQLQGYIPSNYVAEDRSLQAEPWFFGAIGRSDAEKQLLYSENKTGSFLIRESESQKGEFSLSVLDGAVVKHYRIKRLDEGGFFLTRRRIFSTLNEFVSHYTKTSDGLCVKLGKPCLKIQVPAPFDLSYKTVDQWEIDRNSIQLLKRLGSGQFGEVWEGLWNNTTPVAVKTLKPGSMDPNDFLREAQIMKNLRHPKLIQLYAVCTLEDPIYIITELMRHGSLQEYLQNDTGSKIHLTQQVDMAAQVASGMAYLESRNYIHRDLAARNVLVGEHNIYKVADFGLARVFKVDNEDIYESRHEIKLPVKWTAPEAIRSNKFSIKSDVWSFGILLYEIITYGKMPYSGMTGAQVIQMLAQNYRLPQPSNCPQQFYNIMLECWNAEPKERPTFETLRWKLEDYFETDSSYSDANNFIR
TYK2 JH1 catalytic (human), sequence (P29597 whole entry, looked up): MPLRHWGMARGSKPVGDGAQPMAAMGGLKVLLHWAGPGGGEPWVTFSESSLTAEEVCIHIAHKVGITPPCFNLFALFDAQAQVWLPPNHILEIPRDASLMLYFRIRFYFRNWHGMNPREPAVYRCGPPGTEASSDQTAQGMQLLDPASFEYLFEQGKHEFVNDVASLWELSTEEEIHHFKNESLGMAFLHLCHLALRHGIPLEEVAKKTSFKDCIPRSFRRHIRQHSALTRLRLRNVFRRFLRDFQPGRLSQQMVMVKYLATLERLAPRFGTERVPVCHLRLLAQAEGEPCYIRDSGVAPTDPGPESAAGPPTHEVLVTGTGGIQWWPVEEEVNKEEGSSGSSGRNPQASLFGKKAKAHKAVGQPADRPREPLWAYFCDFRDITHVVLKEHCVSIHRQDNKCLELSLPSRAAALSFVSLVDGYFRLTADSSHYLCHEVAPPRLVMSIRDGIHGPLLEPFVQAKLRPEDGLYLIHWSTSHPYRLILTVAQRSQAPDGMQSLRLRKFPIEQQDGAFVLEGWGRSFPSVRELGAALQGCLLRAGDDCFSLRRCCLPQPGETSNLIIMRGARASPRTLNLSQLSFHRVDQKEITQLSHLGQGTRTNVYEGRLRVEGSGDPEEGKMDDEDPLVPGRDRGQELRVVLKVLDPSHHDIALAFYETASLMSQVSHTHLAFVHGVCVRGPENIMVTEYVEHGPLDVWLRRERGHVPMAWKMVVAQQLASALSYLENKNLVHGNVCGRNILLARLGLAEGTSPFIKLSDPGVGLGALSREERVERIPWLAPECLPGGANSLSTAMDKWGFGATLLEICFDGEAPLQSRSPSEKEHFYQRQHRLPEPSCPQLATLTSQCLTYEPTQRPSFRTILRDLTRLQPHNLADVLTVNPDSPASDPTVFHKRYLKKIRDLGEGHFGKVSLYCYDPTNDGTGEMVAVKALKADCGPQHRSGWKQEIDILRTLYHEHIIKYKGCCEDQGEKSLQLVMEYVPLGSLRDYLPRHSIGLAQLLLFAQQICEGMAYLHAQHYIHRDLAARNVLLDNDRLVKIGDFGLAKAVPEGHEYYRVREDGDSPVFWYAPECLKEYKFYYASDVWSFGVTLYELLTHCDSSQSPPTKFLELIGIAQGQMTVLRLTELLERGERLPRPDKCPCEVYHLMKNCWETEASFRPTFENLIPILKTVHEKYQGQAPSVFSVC
MAP4K5 (human), sequence (Q9Y4K4 whole entry, looked up): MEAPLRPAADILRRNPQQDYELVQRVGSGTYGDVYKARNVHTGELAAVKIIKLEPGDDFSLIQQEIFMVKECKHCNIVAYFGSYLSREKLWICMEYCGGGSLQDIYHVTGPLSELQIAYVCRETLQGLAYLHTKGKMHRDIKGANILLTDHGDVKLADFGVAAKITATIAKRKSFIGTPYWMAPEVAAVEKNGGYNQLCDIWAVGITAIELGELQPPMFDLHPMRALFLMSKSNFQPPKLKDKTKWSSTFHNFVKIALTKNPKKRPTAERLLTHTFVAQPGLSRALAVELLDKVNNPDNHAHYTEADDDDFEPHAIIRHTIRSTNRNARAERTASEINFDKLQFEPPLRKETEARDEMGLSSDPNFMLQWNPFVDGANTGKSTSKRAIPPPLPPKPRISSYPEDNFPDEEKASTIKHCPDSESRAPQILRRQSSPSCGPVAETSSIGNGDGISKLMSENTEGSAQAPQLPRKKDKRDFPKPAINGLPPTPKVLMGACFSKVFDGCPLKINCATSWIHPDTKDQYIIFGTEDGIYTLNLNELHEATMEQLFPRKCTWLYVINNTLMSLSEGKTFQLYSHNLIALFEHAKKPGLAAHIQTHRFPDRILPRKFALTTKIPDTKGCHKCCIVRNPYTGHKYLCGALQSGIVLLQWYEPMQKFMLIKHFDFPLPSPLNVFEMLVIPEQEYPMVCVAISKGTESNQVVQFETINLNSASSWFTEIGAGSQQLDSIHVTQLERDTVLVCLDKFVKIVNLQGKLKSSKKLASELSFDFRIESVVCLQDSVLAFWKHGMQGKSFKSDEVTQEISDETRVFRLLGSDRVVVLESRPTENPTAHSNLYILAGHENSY
STK11 (human), sequence (Q15831 whole entry, looked up): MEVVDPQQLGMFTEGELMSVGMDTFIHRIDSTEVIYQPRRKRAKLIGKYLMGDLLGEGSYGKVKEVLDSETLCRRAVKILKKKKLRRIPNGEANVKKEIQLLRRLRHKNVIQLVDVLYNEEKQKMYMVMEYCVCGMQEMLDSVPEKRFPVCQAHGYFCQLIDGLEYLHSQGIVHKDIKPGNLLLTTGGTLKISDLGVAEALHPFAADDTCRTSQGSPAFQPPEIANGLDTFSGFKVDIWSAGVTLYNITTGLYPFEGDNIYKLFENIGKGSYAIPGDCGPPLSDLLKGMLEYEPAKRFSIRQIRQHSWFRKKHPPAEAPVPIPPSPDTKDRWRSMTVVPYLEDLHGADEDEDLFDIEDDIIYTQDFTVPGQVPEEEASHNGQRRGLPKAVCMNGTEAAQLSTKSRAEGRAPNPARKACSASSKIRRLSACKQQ
FGFR3 (human), sequence (P22607 whole entry, looked up): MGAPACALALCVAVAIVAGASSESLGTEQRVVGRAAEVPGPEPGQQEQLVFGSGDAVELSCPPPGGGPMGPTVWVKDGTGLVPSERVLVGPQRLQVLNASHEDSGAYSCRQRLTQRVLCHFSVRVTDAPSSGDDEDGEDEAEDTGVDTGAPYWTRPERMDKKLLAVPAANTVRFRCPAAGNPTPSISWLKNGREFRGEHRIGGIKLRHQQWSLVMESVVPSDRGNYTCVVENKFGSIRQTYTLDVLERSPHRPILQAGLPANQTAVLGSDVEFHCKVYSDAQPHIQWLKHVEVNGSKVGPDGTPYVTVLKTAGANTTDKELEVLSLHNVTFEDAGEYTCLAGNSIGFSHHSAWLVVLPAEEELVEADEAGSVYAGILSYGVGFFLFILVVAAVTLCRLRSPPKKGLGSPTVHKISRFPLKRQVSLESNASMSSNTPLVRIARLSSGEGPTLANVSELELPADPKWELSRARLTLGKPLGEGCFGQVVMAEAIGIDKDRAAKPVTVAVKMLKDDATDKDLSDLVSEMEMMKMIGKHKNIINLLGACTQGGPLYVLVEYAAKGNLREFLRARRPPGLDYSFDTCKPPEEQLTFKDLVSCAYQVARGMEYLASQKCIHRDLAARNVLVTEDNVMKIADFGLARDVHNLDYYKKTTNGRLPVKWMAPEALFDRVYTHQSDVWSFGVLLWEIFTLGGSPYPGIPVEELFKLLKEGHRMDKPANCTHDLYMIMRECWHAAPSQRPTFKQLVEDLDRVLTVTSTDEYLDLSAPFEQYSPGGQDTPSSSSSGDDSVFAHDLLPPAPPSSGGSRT

## Fc1ccc(-c2nc3n(c2-c2ccncc2)CCS3)cc1
CLK1 (human)
  residual activity: 103%
CAMK2B (human)
  residual activity: 90%
AKT1 (human)
  residual activity: 105%
PHKG1 (human)
  residual activity: 94.6%
ITK (human)
  residual activity: 97.5%
PAK7 (human)
  residual activity: 97.6%
MINK1 (human)
  residual activity: 97.7%
FGFR1 (human)
  residual activity: 93.4%
MAPK8 (human)
  residual activity: 99%
NEK2 (human)
  residual activity: 115%
MAP4K5 (human)
  residual activity: 98.7%
[1]
  residual activity: 107%
BRSK1 (human)
  residual activity: 93.9%
STK25 (human)
  residual activity: 104%
FYN (human)
  residual activity: 108%
STK10 (human)
  residual activity: 94.9%
[2]
  residual activity: 104%
DSTYK (human)
  residual activity: 105%
RPS6KA6 KD1 KD2 (human)
  residual activity: 115%
STK11 (human)
  residual activity: 93.8%
DYRK4 (human)
  residual activity: 106%
FRK (human)
  residual activity: 104%
MAPK3 (human)
  residual activity: 103%
MERTK (human)
  residual activity: 88.7%
WNK2 (human)
  residual activity: 104%
ZAP70 (human)
  residual activity: 107%
PTK2B (human)
  residual activity: 106%
NUAK1 (human)
  residual activity: 98.6%
FGFR3 (human)
  residual activity: 91.8%
PAK4 (human)
  residual activity: 99.1%
DYRK2 (human)
  residual activity: 101%
ACVRL1 (human)
  residual activity: 97.9%
MAP3K5 (human)
  residual activity: 105%
ABL2 (human)
  residual activity: 91%
NEK11 (human)
  residual activity: 71.4%
CAMK2A (human)
  residual activity: 106%
[3]
  residual activity: 112%
MAPK14 (human)
  residual activity: 43.1%
STK24 (human)
  residual activity: 94.2%
CDK2 CCNA2 (human)
  residual activity: 101%
ROCK2 (human)
  residual activity: 99.1%
GRK7 (human)
  residual activity: 104%

## O=C1c2ccccc2-c2nc3nnnn3nc21
CLK1 (human)
  residual activity: 79.4%
CAMK2B (human)
  residual activity: 85.1%
AKT1 (human)
  residual activity: 79.7%
PHKG1 (human)
  residual activity: 92.5%
ITK (human)
  residual activity: 71.5%
PAK7 (human)
  residual activity: 93.4%
MINK1 (human)
  residual activity: 91.2%
FGFR1 (human)
  residual activity: 24.2%
MAPK8 (human)
  residual activity: 78.3%
NEK2 (human)
  residual activity: 77.7%
MAP4K5 (human)
  residual activity: 78.7%
[1]
  residual activity: 77.2%
BRSK1 (human)
  residual activity: 84.8%
STK25 (human)
  residual activity: 101%
FYN (human)
  residual activity: 76.2%
STK10 (human)
  residual activity: 84.3%
[2]
  residual activity: 85.7%
DSTYK (human)
  residual activity: 81.5%
RPS6KA6 KD1 KD2 (human)
  residual activity: 62.3%
STK11 (human)
  residual activity: 99.1%
DYRK4 (human)
  residual activity: 88.5%
FRK (human)
  residual activity: 33.9%
MAPK3 (human)
  residual activity: 87%
MERTK (human)
  residual activity: 93.1%
WNK2 (human)
  residual activity: 143%
ZAP70 (human)
  residual activity: 68.2%
PTK2B (human)
  residual activity: 52.1%
NUAK1 (human)
  residual activity: 89.8%
FGFR3 (human)
  residual activity: 26.7%
PAK4 (human)
  residual activity: 91.4%
DYRK2 (human)
  residual activity: 113%
ACVRL1 (human)
  residual activity: 105%
MAP3K5 (human)
  residual activity: 106%
ABL2 (human)
  residual activity: 89.7%
NEK11 (human)
  residual activity: 88%
CAMK2A (human)
  residual activity: 84.7%
[3]
  residual activity: 5.79%
MAPK14 (human)
  residual activity: 88.6%
STK24 (human)
  residual activity: 101%
CDK2 CCNA2 (human)
  residual activity: 70.3%
ROCK2 (human)
  residual activity: 81.7%
GRK7 (human)
  residual activity: 78.1%

## N#Cc1c[nH]c2c[nH]/c(=N\Cc3cccnc3)cc2/c1=N\c1ccc(F)c(Cl)c1
CLK1 (human)
  residual activity: 91%
CAMK2B (human)
  residual activity: 97.4%
AKT1 (human)
  residual activity: 98.6%
PHKG1 (human)
  residual activity: 92%
ITK (human)
  residual activity: 99.1%
PAK7 (human)
  residual activity: 98.3%
MINK1 (human)
  residual activity: 77.5%
FGFR1 (human)
  residual activity: 83.4%
MAPK8 (human)
  residual activity: 110%
NEK2 (human)
  residual activity: 75.2%
MAP4K5 (human)
  residual activity: 61.7%
[1]
  residual activity: 103%
BRSK1 (human)
  residual activity: 94.5%
STK25 (human)
  residual activity: 95.6%
FYN (human)
  residual activity: 103%
STK10 (human)
  residual activity: 52.8%
[2]
  residual activity: 115%
DSTYK (human)
  residual activity: 87.3%
RPS6KA6 KD1 KD2 (human)
  residual activity: 104%
STK11 (human)
  residual activity: 91.1%
DYRK4 (human)
  residual activity: 84.4%
FRK (human)
  residual activity: 101%
MAPK3 (human)
  residual activity: 100%
MERTK (human)
  residual activity: 67.2%
WNK2 (human)
  residual activity: 91.1%
ZAP70 (human)
  residual activity: 103%
PTK2B (human)
  residual activity: 100%
NUAK1 (human)
  residual activity: 103%
FGFR3 (human)
  residual activity: 91.7%
PAK4 (human)
  residual activity: 85.4%
DYRK2 (human)
  residual activity: 95.5%
ACVRL1 (human)
  residual activity: 96.9%
MAP3K5 (human)
  residual activity: 106%
ABL2 (human)
  residual activity: 87.4%
NEK11 (human)
  residual activity: 87.1%
CAMK2A (human)
  residual activity: 105%
[3]
  residual activity: 96.2%
MAPK14 (human)
  residual activity: 115%
STK24 (human)
  residual activity: 95.6%
CDK2 CCNA2 (human)
  residual activity: 75.1%
ROCK2 (human)
  residual activity: 97.1%
GRK7 (human)
  residual activity: 95.5%
